Broadly, the IC50 is the point on the concentration scale where inhibition reaches its midpoint. The low end stands for inhibition by little substance, the high end for a need for much substance.

The record followed here is US10844069B2, “Pyrrolotriazine compounds as TAM inhibitors” (Incyte Corporation, priority 2016, dated 2020).

One assay has as its target Axl (Homo sapiens (Human), UniProt P30530). Put plainly: TAM Enzymatic Assay (HTRF), phosphor-Axl. The format is biochemical. The method, then: Autophosphorylation of Axl was carried out by incubating the recombinant Axl protein (Life Technologies, PV4275) in buffer containing 50 mM Tris, pH7.5, 0.2 mg/ml Axl, 5 mM ATP, 20 mM MgCl2 and 2 mM DTT at room temperature for 1 hour.
(§1) The kinase assay buffer contained 50 mM HEPES, pH7.5, 10 mM MgCl2, 1 mM EGTA, 0.01% NP-40 and 2 mM DTT. 0.1 ul test compounds dissolved in DMSO were transferred from compound plates to white 384-well assay plates (Greiner […] plates). […] 4 ul enzyme solution (or assay buffer for the enzyme blank) was added to the appropriate wells in each plate, and then 4 ul/well substrate solution was added to initiate the reaction. The plate was protected from light and incubated at room temperature for 60 min. […] The plate was incubated for 1 h at room temperature, and HTRF (homogenous time resolved fluorescence) signal was measured on a PHERAstar FS plate reader (BMG labtech). Percentage of inhibition was calculated for each concentration and IC50 value was generated from curve fitting with GraphPad Prism software.

A further assay deals with Tyro3 (Homo sapiens (Human), UniProt Q06418). Put plainly: TAM Enzymatic Assay (HTRF), Tyro3. In kind it is biochemical. How it is done: as §1
On the technique in general: Time-resolved FRET reads energy transfer from a long-lived donor to a nearby acceptor.

Axl, sequence (P30530 26-894): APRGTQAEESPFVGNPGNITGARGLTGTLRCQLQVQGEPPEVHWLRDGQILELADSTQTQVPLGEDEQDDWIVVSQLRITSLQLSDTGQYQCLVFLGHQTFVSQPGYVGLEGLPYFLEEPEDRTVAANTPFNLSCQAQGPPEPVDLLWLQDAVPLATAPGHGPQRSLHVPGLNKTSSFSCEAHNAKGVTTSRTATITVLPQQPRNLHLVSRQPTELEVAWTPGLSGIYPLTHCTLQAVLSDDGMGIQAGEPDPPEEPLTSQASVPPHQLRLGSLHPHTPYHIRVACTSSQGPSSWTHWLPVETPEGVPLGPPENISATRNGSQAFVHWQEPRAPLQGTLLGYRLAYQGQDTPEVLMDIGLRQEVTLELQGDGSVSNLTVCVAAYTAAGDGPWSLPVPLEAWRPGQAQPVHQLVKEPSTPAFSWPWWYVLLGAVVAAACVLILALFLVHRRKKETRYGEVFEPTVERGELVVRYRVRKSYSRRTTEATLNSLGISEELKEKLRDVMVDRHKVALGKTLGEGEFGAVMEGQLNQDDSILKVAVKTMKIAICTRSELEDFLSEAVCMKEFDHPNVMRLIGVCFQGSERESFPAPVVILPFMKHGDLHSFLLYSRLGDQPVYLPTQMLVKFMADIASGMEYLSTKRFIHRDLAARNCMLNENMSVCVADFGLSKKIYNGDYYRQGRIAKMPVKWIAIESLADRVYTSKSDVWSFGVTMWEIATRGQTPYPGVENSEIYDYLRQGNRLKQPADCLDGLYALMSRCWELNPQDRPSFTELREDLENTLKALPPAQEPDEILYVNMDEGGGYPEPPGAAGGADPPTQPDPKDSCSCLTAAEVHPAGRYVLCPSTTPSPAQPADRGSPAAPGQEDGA
Tyro3, sequence (Q06418 41-890): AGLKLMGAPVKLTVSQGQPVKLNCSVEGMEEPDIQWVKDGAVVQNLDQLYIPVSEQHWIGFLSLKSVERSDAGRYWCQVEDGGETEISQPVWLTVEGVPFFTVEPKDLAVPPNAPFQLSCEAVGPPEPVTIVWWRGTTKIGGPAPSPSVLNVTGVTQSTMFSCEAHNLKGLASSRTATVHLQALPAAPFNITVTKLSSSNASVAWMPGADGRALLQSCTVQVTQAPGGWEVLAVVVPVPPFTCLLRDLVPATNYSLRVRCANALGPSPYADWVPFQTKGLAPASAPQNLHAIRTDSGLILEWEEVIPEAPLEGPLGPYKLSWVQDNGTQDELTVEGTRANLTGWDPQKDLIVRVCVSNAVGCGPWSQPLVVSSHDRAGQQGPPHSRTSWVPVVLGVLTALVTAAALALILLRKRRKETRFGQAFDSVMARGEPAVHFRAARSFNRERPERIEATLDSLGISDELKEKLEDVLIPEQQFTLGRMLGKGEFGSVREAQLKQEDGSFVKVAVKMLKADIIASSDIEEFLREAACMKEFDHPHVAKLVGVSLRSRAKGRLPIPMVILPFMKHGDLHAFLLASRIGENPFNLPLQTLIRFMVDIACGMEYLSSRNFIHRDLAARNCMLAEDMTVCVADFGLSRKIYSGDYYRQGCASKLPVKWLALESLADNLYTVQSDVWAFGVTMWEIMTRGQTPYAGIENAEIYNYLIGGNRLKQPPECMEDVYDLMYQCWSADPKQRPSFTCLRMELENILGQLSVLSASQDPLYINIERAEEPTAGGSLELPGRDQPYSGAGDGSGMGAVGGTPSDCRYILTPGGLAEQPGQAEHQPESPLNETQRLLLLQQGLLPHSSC

In the case of `Cc1cn(C)nc1-n1c(=O)c(C(=O)Nc2ccc(-c3cc(C4CCN(C(=O)C(C)C)CC4)n4ncnc(N)c34)cc2)cn(C(C)C)c1=O` [Example 138, N-(4-(4-Amino-7-(1-isobutyrylpiperidin-4-yl)pyrrolo[2,1-f][1,2,4]triazin-5-yl)phenyl)-3-(1,4-dimethyl-1H-pyrazol-3-yl)-1-isopropyl-2,4-dioxo-1,2,3,4-tetrahydropyrimidine-5-carboxamide], the 50% inhibitory concentration (IC50) against Axl was below 5 nM; against Tyro3 it was above 100 nM.
